Measured values from patent publication US11028095B2, “Spiro-lactam and bis-spiro-lactam NMDA receptor modulators and uses thereof” (Aptinyx Inc., priority 2016, dated 2021).

Key:
[1] = Microsomal stability (Rat); assay type: in vitro ADME; conditions: rat microsomes
Protocol: (§1) Microsomal stability of disclosed compounds was investigated. The following table indicates the percent of compound remaining after 60 minutes.

[2] = Microsomal stability (Human); assay type: in vitro ADME; conditions: human microsomes
Protocol: as §1

[3] = molecular target: T1, NMDAR2C expressing HEK cell membranes (Homo sapiens, UniProt Q05586+Q14957); assay: NMDAR agonist assay, [3H]MK-801 binding, NMDAR2C; assay type: biochemical; conditions: 50 μM glutamate; [3H]MK-801 binding; read-out: NMDAR2C: log EC50 (converted)
T1 construct: expressed in transfected cells; host or cells: HEK cells (membrane extract)
Protocol: (§2) (nonequilibrium conditions).
(§3) The baseline value was determined from the best fit curve of the DPM values modeled using the GraphPad program and the log(agonist) vs. response(three parameters) algorithm was then subtracted from all points in the dataset.

[4] = molecular target: T2, NMDAR2C expressing HEK cell membranes (Homo sapiens, UniProt Q14957); assay: NMDAR agonist assay, [3H]MK-801 binding, NMDAR2C; assay type: biochemical; conditions: 50 μM glutamate; relative to 1 mM glycine
T2 construct: expressed in transfected cells; host or cells: HEK cells (membrane extract)
Protocol: as §2, §3

[5] = molecular target: T3, NMDAR2B expressing HEK cell membranes (Homo sapiens, UniProt Q05586+Q13224); assay: NMDAR agonist assay, [3H]MK-801 binding, NMDAR2B; assay type: biochemical; conditions: 50 μM glutamate
T3 construct: expressed in transfected cells; host or cells: HEK cells (membrane extract)
T3 sequence (Q13224 27-1484, other chains not shown): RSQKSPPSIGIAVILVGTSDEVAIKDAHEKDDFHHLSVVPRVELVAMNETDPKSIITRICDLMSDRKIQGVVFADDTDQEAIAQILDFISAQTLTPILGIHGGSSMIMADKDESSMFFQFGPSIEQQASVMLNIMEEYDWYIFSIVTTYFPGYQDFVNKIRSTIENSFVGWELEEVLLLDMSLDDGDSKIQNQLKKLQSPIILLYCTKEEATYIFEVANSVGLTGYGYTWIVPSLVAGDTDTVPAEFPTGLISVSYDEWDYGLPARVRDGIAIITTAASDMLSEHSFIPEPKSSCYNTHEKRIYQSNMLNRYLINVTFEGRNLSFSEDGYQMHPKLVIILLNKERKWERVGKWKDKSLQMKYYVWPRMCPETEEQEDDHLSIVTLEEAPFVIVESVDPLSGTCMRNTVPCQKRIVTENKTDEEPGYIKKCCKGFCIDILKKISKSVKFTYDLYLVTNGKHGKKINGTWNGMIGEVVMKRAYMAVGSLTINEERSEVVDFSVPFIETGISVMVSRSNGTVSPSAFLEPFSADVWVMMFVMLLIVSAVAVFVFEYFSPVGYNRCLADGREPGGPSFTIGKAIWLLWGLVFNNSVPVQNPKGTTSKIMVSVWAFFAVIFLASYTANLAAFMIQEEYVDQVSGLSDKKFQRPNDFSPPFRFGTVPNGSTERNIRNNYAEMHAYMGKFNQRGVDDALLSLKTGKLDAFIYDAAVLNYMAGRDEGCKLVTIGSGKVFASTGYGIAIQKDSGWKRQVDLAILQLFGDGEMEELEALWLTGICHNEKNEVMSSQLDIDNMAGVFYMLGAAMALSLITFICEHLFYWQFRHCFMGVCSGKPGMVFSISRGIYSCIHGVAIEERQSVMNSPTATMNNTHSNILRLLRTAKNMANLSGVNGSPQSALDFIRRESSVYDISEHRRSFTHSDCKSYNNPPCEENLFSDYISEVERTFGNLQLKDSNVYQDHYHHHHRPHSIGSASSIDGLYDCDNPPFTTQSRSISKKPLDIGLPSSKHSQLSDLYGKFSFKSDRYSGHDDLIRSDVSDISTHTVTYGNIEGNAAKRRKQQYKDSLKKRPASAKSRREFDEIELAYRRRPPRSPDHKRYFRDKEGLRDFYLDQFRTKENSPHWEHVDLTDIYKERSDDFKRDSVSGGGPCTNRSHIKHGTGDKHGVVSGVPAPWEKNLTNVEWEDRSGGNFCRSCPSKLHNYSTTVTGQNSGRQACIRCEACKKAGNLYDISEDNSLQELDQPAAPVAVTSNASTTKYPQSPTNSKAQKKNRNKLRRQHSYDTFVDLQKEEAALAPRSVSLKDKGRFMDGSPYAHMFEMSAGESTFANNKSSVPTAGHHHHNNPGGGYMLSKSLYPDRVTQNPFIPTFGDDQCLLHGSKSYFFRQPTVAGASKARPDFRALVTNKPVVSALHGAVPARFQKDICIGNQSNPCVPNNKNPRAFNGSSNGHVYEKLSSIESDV
Protocol: as §2, §3

Plasma stability (Rat) = assay type: in vitro ADME
Protocol: (§4) Plasma stability of disclosed compounds was investigated. The following table indicates the percent of compound remaining after 60 minutes.

[6] = molecular target: T4, NMDAR2A expressing HEK cell membranes (Homo sapiens, UniProt Q05586+Q12879); assay: NMDAR agonist assay, [3H]MK-801 binding, NMDAR2A; assay type: biochemical; conditions: 50 μM glutamate
T4 construct: expressed in transfected cells; host or cells: HEK cells (membrane extract)
T4 sequence (Q12879 23-1464, other chains not shown): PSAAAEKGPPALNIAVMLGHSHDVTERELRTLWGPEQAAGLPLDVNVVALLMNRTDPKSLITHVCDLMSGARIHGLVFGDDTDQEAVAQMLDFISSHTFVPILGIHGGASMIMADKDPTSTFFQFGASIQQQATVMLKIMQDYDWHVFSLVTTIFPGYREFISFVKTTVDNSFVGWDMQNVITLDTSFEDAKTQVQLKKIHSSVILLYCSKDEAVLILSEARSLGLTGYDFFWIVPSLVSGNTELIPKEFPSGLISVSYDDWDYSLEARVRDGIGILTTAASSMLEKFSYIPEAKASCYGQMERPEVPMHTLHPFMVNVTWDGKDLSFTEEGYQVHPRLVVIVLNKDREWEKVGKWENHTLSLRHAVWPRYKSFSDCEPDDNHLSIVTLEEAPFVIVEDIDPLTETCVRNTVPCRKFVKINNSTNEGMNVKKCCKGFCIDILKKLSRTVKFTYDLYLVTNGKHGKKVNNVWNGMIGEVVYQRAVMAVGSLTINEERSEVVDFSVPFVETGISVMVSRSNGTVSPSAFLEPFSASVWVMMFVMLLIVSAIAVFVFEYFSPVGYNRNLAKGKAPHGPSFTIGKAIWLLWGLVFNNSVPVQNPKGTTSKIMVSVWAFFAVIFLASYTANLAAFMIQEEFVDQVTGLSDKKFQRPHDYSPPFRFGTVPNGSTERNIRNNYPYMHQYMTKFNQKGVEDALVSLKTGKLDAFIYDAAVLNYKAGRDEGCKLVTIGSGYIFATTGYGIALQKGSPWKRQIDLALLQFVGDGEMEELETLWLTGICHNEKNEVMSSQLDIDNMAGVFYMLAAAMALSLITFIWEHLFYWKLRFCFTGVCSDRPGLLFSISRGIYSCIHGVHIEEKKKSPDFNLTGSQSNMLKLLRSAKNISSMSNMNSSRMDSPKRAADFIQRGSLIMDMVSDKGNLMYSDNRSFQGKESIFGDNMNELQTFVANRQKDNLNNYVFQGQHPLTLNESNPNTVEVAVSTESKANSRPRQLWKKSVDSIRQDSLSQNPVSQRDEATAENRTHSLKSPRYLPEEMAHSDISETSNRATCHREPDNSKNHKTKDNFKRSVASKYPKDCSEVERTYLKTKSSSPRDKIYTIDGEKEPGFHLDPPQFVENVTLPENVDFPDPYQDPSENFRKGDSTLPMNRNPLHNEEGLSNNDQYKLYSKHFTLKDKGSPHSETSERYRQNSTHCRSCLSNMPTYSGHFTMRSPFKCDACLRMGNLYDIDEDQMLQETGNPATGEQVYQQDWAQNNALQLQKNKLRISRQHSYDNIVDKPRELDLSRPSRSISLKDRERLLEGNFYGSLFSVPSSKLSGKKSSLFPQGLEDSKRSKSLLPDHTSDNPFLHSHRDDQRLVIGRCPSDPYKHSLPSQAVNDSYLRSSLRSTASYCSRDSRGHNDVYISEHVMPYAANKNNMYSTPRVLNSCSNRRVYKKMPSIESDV
Protocol: as §2, §3

[7] = test system: positive (hedonic) 50-kHz ultrasonic vocalizations (USVs); assay: Positive Emotional Learning (PEL) test; assay type: in vivo; conditions: rat, PO, dose 0.001-1 mg/kg, one hour after administration
Procedure, shortened: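 Rats received test compound or vehicle (0.5% carboxymethyl cellulose in saline) 1 h before 3 min of experimenter-delivered rough-and-tumble play in alternating 15 s play and no-stimulation blocks. Frequency-modulated 50-kHz USVs during no-stimulation (CS) periods were counted; animals not habituated beforehand.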

Plasma stability (Human) = assay type: in vitro ADME
Protocol: as §4

[8] = molecular target: T5, NMDAR2D expressing HEK cell membranes (Homo sapiens, UniProt O15399); assay: NMDAR agonist assay, [3H]MK-801 binding, NMDAR2D; assay type: biochemical; conditions: 50 μM glutamate; relative to 1 mM glycine
T5 construct: expressed in transfected cells; host or cells: HEK cells (membrane extract)
T5 sequence (O15399 28-1336, other chains not shown): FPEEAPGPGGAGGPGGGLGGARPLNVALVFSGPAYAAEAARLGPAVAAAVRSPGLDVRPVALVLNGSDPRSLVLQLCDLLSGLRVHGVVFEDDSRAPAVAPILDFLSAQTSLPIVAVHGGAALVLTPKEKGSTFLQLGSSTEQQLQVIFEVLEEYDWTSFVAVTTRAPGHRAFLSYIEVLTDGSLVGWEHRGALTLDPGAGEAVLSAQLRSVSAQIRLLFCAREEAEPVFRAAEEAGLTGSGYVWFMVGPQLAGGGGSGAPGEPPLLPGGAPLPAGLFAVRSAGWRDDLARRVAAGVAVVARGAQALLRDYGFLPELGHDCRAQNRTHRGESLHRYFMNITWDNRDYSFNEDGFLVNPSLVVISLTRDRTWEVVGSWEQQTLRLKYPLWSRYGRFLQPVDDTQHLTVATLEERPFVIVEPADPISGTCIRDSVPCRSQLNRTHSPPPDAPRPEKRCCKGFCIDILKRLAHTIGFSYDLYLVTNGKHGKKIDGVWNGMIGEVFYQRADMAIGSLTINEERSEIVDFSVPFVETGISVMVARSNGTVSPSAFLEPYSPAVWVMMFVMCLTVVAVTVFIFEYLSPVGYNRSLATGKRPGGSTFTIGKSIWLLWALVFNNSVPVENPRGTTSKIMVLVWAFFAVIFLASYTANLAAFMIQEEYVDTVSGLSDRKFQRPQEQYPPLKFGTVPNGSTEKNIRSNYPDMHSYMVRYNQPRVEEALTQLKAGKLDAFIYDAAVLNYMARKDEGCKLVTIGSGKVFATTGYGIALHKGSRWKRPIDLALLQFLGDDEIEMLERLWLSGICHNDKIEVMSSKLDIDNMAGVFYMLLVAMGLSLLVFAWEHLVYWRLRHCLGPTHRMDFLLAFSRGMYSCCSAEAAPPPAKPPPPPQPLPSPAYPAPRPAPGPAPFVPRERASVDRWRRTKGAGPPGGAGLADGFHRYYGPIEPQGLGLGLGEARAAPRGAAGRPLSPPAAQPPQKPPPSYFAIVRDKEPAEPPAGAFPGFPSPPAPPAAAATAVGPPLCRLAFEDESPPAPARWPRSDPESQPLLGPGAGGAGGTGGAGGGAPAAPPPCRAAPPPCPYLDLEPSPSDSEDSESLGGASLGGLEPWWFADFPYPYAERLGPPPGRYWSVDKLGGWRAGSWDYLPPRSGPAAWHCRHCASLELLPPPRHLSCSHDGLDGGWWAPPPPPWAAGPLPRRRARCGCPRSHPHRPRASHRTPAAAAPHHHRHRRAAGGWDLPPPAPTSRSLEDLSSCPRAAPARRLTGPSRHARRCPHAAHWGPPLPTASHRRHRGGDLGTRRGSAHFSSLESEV
Protocol: as §2, §3

[9] = molecular target: T6, NMDAR2D expressing HEK cell membranes (Homo sapiens, UniProt O15399+Q05586); assay: NMDAR agonist assay, [3H]MK-801 binding, NMDAR2D; assay type: biochemical; conditions: 50 μM glutamate; [3H]MK-801 binding; read-out: NMDAR2D: log EC50 (converted)
T6 construct: expressed in transfected cells; host or cells: HEK cells (membrane extract)
T6 sequence (O15399 28-1336, other chains not shown): as above
Protocol: as §2, §3

Microsomal (Rat): percent of compound remaining after 60 minutes [1]: 100%
Microsomal (Human): percent of compound remaining after 60 minutes [2]: 98%
EC50 [3]: < 1 nM
NMDAR2C A: % maximal [3H]MK-801 binding relative to 1 mM glycine [4]: + (<100%=+)
EC50 ([5]; [3H]MK-801 binding, read-out: NMDAR2B log EC50 (converted)): < 1 nM
Emax ([5]; relative to 1 mM glycine, read-out: NMDAR2B: % maximal [3H]MK-801 binding relative to 1 mM glycine): < 100%
Plasma (Rat): percent of compound remaining after 60 minutes (Plasma stability (Rat)): 94%
EC50 ([6]; [3H]MK-801 binding, read-out: NMDAR2A: log EC50 (converted)): < 1 nM
Emax ([6]; relative to 1 mM glycine, read-out: NMDAR2A: % maximal [3H]MK-801 binding relative to 1 mM glycine): < 100%
Plasma (Human): percent of compound remaining after 60 minutes (Plasma stability (Human)): 94%
NMDAR2D: % maximal [3H]MK-801 binding relative to 1 mM glycine [8]: + (<100%=+)
EC50 [9]: < 1 nM
Structure (SMILES): O=C1NCC12CCC1(CNC1=O)N2Cc1ccccc1 (single isomer, unassigned) [AC-2, 5-benzyl-2,5,8-triazadispiro[3.1.36.24]undecane-1,7-dione]
Max Effect (mean number of 50 kHz USVs per 15 seconds) [7]: * (*: 6-10.9)
